Reference: patent US20050214248A1, “Non-glycosylated polyacrylamide conjugates and their use for cytoprotection” (University of Bern, priority 2002, published 2005)
Read-outs that look alike come from different tables or passages of the source.

Assays:
yield of neutrophils = conditions: mouse; Cecconi et al. 1994; cited from earlier work
recombinant P-selectin = biological target: T1, recombinant P-selectin (Homo sapiens, UniProt P16109); test: In vitro assay for inhibition of P-selectin binding (HSO3Le^a-PAA-biotin binding to immobilized recombinant selectin); conditions: for inhibition of recombinant P-selectin in the cell-free assay: result in words
T1 construct: Recombinant ZZ-selectin (monovalent) lacking the transmembrane and cytosolic domains was produced as C-terminal chimera with the ZZ domain of protein A; made in house
T1 sequence (P16109 42-771 limits assumed): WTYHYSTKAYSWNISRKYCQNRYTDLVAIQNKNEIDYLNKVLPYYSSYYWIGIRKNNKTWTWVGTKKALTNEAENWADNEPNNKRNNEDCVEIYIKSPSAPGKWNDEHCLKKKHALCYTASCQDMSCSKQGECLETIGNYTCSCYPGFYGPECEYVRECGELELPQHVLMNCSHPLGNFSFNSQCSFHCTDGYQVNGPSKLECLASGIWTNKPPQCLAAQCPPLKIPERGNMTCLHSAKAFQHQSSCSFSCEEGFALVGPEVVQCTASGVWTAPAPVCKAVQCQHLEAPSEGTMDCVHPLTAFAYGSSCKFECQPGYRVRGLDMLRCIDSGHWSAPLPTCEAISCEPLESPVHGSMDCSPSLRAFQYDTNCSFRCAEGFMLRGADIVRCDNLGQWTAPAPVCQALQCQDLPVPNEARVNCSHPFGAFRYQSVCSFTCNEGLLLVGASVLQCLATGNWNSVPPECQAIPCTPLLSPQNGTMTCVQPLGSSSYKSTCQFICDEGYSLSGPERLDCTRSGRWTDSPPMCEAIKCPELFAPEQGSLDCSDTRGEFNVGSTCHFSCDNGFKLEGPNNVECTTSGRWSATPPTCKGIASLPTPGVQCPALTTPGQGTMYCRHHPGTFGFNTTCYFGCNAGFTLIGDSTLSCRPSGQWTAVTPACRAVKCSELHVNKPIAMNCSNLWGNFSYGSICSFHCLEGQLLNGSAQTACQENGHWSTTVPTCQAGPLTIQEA
Excerpt: The in vitro test-system is based on the inhibition of HSO3Le^a-PAA-biotin binding to recombinant P-selectin. For details, see example 1.
All PAA-based neoglycoconjugates were from 30 to 40 kDa and obtained according to standard methods (Gordeeva, E. A., Tuzikov, A. B., Galanina, O. E., Pochechueva, T. V. & Bovin, N. V. (2000). Microscale synthesis of glycoconjugate series and libraries. Anal. Biochem. 278, 230-232; Bovin, N. V., Korchagina, E. Yu., Zemlyanukhina, T. V., Byramova, N. E., Galanina, O. E., Zemlyakov, A. E., Ivanov, A. E., Zubov, V. P., and Mochalova, L. V. (1993) Synthesis of polymeric neoglycoconjugates based on N-substituted polyacrylamide. Glycoconj. J. 10, 142-151). sTyr-PAA (containing 80 mol % sTyr) was synthesized using 200% excess of sTyr in relation to the activated polymer. The degree of sTyr substitution was determined by the conjugate's increase in weight. Recombinant ZZ-selectin (monovalent) lacking the transmembrane and cytosolic domains was produced as C-terminal chimera with the ZZ domain of protein A (Priest, R., Nawaz, S., Green, P. M., and Bird, M. I. (1995). Adhesion of eosinophils to E- & P-selectin. Biochem. Soc. Trans. 23, 162S). Tripeptide Tyr-Tyr-Tyr (Bachem, Germany) and aminoglucitol (Sigma) were per-O-sulfated with SO3/Py complex (Field, R. A., Otter, A., Fu, W., Hindsgaul, O. Carbohydr. Res. 1995, 276, 347-363). Fucoidan was purchased from Sigma (USA).
The assay was performed on 96-Well plates. Human IgG was used as a primary coating reagent to immobilize recombinant selectin via the ZZ-domain of the fusion protein. The working concentration of selectin was 3 ng/well. […] Details of this assay were published in (Game, S. M., Rajapurohit, P. K., Clifford, M., Bird, M. I., Priest, R., Bovin, N. V., Nifant'ev, N. E., O'Beime, G., and Cook, N. D. (1998) Scintillation proximity assay for E-, P-, and L-selectin utilizing polyacrylamide-based neoglycoconjugates as ligands. Anal. Biochem. 258, 127-135; Tatyana V. Pochechueva, Oxana E. Galanina, Michael I. Bird, Nikolay E. Nifant'ev, Nicolai V. Bovin. Assembly of P-Selectin Ligands on a Polymeric Template, Chem&Biol, Vol. 9, 2002, p. 757-762; Natalia Ushakova, Marina Preobrazhenskaya, Mike I. Bird, Richard Priest, A. V. Semenov, A. V. Mazurov, Nikolay Ni-fant'ev, Tatyana Pochechueva, Oxaha Galanina, Nicolai Bovin. Monomeric and Multimeric Blockers of Selectins: Comparison of In Vitro and In Vivo Activity/Biol. Chem. Hoppe Seyler, 2002 submitted).

P-selectin = biological target: T2, P-selectin (Homo sapiens, UniProt P16109); conditions: cited from earlier work
T2 sequence (P16109 42-830): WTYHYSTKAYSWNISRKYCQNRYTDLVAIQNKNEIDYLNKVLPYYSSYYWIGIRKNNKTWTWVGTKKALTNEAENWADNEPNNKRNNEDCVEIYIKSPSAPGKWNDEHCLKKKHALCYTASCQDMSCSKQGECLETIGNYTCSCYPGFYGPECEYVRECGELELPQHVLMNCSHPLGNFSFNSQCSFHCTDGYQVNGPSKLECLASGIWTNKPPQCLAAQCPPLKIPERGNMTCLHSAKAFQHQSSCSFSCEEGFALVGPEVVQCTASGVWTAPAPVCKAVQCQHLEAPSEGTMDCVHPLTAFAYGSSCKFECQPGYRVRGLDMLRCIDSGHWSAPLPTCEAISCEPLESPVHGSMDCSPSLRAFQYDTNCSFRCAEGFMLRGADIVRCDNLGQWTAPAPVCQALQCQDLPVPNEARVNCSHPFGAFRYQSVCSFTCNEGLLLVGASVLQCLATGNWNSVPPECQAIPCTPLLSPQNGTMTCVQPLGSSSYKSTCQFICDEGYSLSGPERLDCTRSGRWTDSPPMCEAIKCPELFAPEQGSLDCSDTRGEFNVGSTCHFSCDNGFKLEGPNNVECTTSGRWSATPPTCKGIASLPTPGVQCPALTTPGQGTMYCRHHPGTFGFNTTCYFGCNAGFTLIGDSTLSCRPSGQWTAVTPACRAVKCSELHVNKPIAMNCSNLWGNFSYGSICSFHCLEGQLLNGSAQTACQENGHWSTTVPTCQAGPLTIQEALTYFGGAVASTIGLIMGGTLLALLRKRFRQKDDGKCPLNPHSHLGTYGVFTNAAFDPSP

[1] = system: Peptone-induced acute rat peritonitis; test: Rat peritoneal inflammation model (peptone-induced acute peritonitis, neutrophil extravasation); format: in vivo
Procedure: Acute rat peritonitis was induced as described in (Preobrazhenskaya, M. E., Berman, A. E., Mikhailov, V. I., Ushakova, N. A., Mazurov, A. V., Semenov, A. V., Usov, A. I., Nifant'ev, N. E., and Bovin, N. V. (1997) Fucoidan inhibits leukocyte recruitment in a model peritoneal inflammation in rat and blocks interaction of P-selectin with its carbohydrate ligand. Biochem. Mol. Biol. Int 43, 443-451) with some modifications. 10 ml of PBS containing 10% peptone was injected intraperitoneally into female Wistar rats (180-220 g). After 3 h rats were sacrificed and their peritoneal cavities were laved with 30 ml PBS containing 60 units/ml of heparin, 0.02% EDTA and 0.03% bovine serum. The total cell number in the lavage was counted and the cell suspension was concentrated by centrifugation at 400 g for 10 min. After 1:1 dilution with bovine serum smears were prepared and stained according to the Pappenheim method. Neutrophils were counted on two parallel slides and the total neutrophil number was calculated. The inhibitors were administered intravenously as a single dose in 0.3 ml sterile 0.9% NaCl 15 min after peptone injection. The same volume of NaCl solution Was injected into control animals. A difference between the control and tested groups was analyzed for statistical significance based on Student's t-test, p-values<0.05 were considered to be significant.
Peptone-induced acute rat peritonitis was characterized by neutrophil extravasation into the peritoneal cavities. […] A natural ligand such as recombinant PSGL-1 acts in a dose of about 1 mg/kg (S. P. Khor, K. McCarthy, M. Dupont, K. Murray, G. Timony. Pharmacokinetics, pharmacodynamics, allometry, and dose selection of rPSGL-Ig for phase I trial. J. Pharmacol. Exp. Ther., 293, 618-624 (2000); R. Hayward, B. Campbell, Y. K. Shin, R. Scalia, A. M. Lefer. Recombinant soluble P-selectin glycoprotein ligand-1 protects against myocardial ischemic reperfusion injury in cats. Cardiovascular Res., 41, 65-76 (1999)) which approaches the fucoidan activity under study. […]

[2] = inhibition of HSO3Le^a-PAA-biotin binding with P-selectin, means of at least triplicate determinations

O=P(O)(O)O[C@H]1[C@H](OP(=O)(O)O)[C@@H](OP(=O)(O)O)[C@H](OP(=O)(O)O)[C@@H](OP(=O)(O)O)[C@H]1OP(=O)(O)O [Inositol hexaphosphate]
dose inhibiting the yield of neutrophils (almost half of them) (yield of neutrophils): about 70 mg/kg

Hexa-O-sulfo-aminoglucitol
IC50, μM (recombinant P-selectin; [2]): Nl | inhibition of recombinant P-selectin in the cell-free assay (recombinant P-selectin): unable to inhibit

3-0-sulfated galactocerebroside [sulfatide]
IC50 (P-selectin; Marinier et al. 1997, sulfatide and some of its synthetic analogues): 100 to 1000 nM

CC(=O)NC1C(O)OC(CO)C(OC2OC(C)C(O)C(O)C2O)C1OC1OC(CO)C(O)C(OS(=O)(=O)O)C1O (centres unmarked) [HSO3Le^a, 3′-HSO3Galβ1-3(Fucα1-4)GIcNAc]
IC50, μM (recombinant P-selectin; [2]): Nl

Tripeptide Tyr-Tyr-Tyr per-O-sulfated with SO3/Py complex [sTyr-sTyr-sTyr]
IC50, μM (recombinant P-selectin; [2]): Nl | inhibition of recombinant P-selectin in the cell-free assay (recombinant P-selectin): unable to inhibit

Fucoidan
IC50 (recombinant P-selectin; [2]): 100 nM | IC50 in weight (recombinant P-selectin; inhibition of HSO3Le^a-PAA-biotin binding with P-selectin, weight concentration): (100 ng/ml)^2 | Mean inhibition (% to control) ([1]; Series 2, 1.0 mg per rat i.v.): 92 (p < 0.001) % | Number of neutrophils per rat × 10^−6 ([1]; Series 2, 1.0 mg per rat i.v., mean ± SEM): 2.5 ± 0.5 × 10^−6 | blocking of the inflammation process ([1]; result in words): definitely blocked the inflammation process | IC50 (P-selectin; Pochechueva et al., Ley et al. 1993, repeating hexasaccharide units): 100 nM

N[C@@H](Cc1ccc(OS(=O)(=O)O)cc1)C(=O)O [sTyr, tyrosine-O-sulfate]
IC50, μM (recombinant P-selectin; [2]): Nl
